Holding throughout (assay type): cell-based
One experiment relates to Aspergillus brasiliensis. Description: MIC test, 96 well microtiter plate. The note with it: for MIC: Aspergillus brasiliensis, read-out: Minimum Inhibitory Concentration. As for the experimental part:
(§1) MIC set up: A 96 well microtiter plate Minimum Inhibitory Concentration (MIC) test was run in broth suitable for the test organism. Serially diluted actives were prepared in sterilized water, and the start-up concentration varied depending on the efficacy range. Inocula prepared in 2× suitable broth was added into each well, and the final concentrations of bacteria were adjusted to approximately 5×10^5.
(§2) Further MIC tests were conducted using different amine compounds in combination with a pyrithione and two different isothiazolinones. The procedures described in Example No. 1 were used.

The next experiment deals with Aureobasidium pullulans. Description: MIC test, 96 well microtiter plate. The note with it: Aureobasidium pullulans, read-out: Minimum Inhibitory Concentration. The procedure:
as §1, §2

In another experiment the test system is Candida albicans. The experiment in a line: MIC test, 96 well microtiter plate. The settings on record: Candida albicans, read-out: Minimum Inhibitory Concentration. As for the experimental part: as §1, §2
For the next experiment, the system named is Escherichia coli. Description: MIC test, 96 well microtiter plate. The note with it: Escherichia coli, read-out: Minimum Inhibitory Concentration. As for the experimental part: as §1, §2
The subject of the next experiment is Staphylococcus aureus. Description: MIC test, 96 well microtiter plate. The note with it: Staphylococcus aureus, read-out: Minimum Inhibitory Concentration. The procedure: as §1, §2
Experiment [1] concerns mixed bacterial inoculum (Pseudomonas aeruginosa, Enterobacter cloacae, Escherichia coli, Acinetobacter calcoaceticus). Description: Repeated inoculation of standard acrylic paint, streak plate rating. As for the experimental part:
In the following experiments, a pyrithione, an isothiazolinone, and a biocide enhancing agent in accordance with the present disclosure were combined with a standard acrylic paint. The concentrations of the pyrithione, the isothiazolinone and the biocide enhancing agent were varied. The pyrithione, the isothiazolinone and the biocide enhancing agent were added alone and in various mixtures to the standard acrylic paint.
The acrylic paint was then inoculated three times using a mixed bacterial inoculum. The bacterial inoculum, which comprised a bacterial suspension in water, contained the following four bacteria in equal proportions.
The samples were streak plated at 24, 48, and 72 hours after inoculation. The streak plates were rated as follows;

Read-outs that look alike come from different tables or passages of the source.

On to `CCCCCCCCCCCC[N+](C)(C)[O-]` [CDMA Oxide, cocodimethylamine oxide], for which the MIC was found to be 17.4 µg/mL with Aspergillus brasiliensis; 13.9 µg/mL in the experiment with Aureobasidium pullulans; 13.9 µg/mL in the experiment on Candida albicans; 557 µg/mL with Escherichia coli; 13.9 µg/mL in the experiment with Staphylococcus aureus. The streak plate rating was 5 (>45 viable microorganisms Severely contaminated) in experiment [1] (Set Five, CDMA Oxide 1200 ppm, 1st inoculation 24 h); 5 (>45 viable microorganisms Severely contaminated) in experiment [1] (Set Five, CDMA Oxide 1200 ppm, 1st inoculation 48 h); 5 (>45 viable microorganisms Severely contaminated) in experiment [1] (Set Five, CDMA Oxide 1200 ppm, 1st inoculation 72 h); 5 (>45 viable microorganisms Severely contaminated) in experiment [1] (Set Five, CDMA Oxide 1200 ppm, 2nd inoculation 24 h); 5 (>45 viable microorganisms Severely contaminated) in experiment [1] (Set Five, CDMA Oxide 1200 ppm, 2nd inoculation 48 h); 5 (>45 viable microorganisms Severely contaminated) in experiment [1] (Set Five, CDMA Oxide 1200 ppm, 2nd inoculation 72 h). Moreover, the streak plate rating in experiment [1] (Set Five, CDMA Oxide 1200 ppm, 3rd inoculation 24 h) is on record as 5 (>45 viable microorganisms Severely contaminated); in experiment [1] (Set Five, CDMA Oxide 1200 ppm, 3rd inoculation 48 h), 5 (>45 viable microorganisms Severely contaminated); in experiment [1] (Set Five, CDMA Oxide 1200 ppm, 3rd inoculation 72 h) it was 5 (>45 viable microorganisms Severely contaminated); in experiment [1] (Set Two, CDMA Oxide alone, ppm not given, 1st inoculation 24 h), 5 (>45 viable microorganisms Severely contaminated); in experiment [1] (Set Two, CDMA Oxide alone, ppm not given, 1st inoculation 48 h), 5 (>45 viable microorganisms Severely contaminated); in experiment [1] (Set Two, CDMA Oxide alone, ppm not given, 1st inoculation 72 h), 5 (>45 viable microorganisms Severely contaminated). The streak plate rating was 5 (>45 viable microorganisms Severely contaminated) in experiment [1] (Set Two, CDMA Oxide alone, ppm not given, 2nd inoculation 24 h); 5 (>45 viable microorganisms Severely contaminated) in experiment [1] (Set Two, CDMA Oxide alone, ppm not given, 2nd inoculation 48 h); 5 (>45 viable microorganisms Severely contaminated) in experiment [1] (Set Two, CDMA Oxide alone, ppm not given, 2nd inoculation 72 h); 5 (>45 viable microorganisms Severely contaminated) in experiment [1] (Set Two, CDMA Oxide alone, ppm not given, 3rd inoculation 24 h); 5 (>45 viable microorganisms Severely contaminated) in experiment [1] (Set Two, CDMA Oxide alone, ppm not given, 3rd inoculation 48 h); 5 (>45 viable microorganisms Severely contaminated) in experiment [1] (Set Two, CDMA Oxide alone, ppm not given, 3rd inoculation 72 h).

As to `CCCCCCCC[N+](C)(C)[O-]` [DMOA Oxide, N,N-dimethyloctylamine-n-oxide], the MIC was determined as 500 µg/mL in the experiment with Aspergillus brasiliensis (single chemical); 500 µg/mL with Aureobasidium pullulans (single chemical); 375 µg/mL in the experiment with Candida albicans (single chemical); 750 µg/mL with Escherichia coli (single chemical); 250 µg/mL with Staphylococcus aureus (single chemical). For the same compound, in the experiment with Aspergillus brasiliensis (single chemical), the “Minimum Inhibitory Concentration” value was found to be 500 ppm.

Values taken from US10721934B2, “Enhanced preservative” (Arch Chemicals, Inc., priority 2013, dated 2020).
